Test results from US20210299039A1, “COMPOSITIONS AND METHODS FOR TREATING OCULAR DISEASE BY CONTACT LENS MEDIATED DRUG DELIVERY” (EyeGate Pharmaceuticals, Inc., priority 2020, published 2021).

What was measured:
[1] = Drug loading by soaking hydrogel discs in drug solution (weight gain); format: physicochemical; settings: 48-hour soak, HEMA-based discs with 15% MPMA vs without; FIG. 5
Experimental: The HEMA-based hydrogels of formulation 5 in Table 1, were made with and without 15% MPMA. Unreacted components were extracted by washing in DI water for at least 3 hours, followed by washing in a 50:50 mixture of reagent alcohol and DI water for at least 3 hours, then washing again in DI water for at least 3 hours. Discs 15 mm in diameter were punched out and dried in a vacuum dessicator for at least 72 hours. The dry discs were weighed to get an initial weight without drug. Discs were then placed in a drug solution for 48 hours on a shaker at 200 rpm. Drug solutions used in this study can be found in Table 2. After 48 hours, the discs were removed from the drug solution, patted with a Kimwipe to remove solution from the surface, and then dried in a vacuum dessicator for at least 48 hours. The dry drug-loaded discs were weighed, and the amount of drug loaded was determined as the drug-loaded disc weight minus the initial weight.

[2] = Drug release into PBS and extraction from HEMA-based hydrogel discs; format: physicochemical; settings: for effect of MPMA on total amount of drug released and extracted: HEMA-based discs with MPMA vs without, FIG. 7; for effect of MPMA on release over time: HEMA-based material with vs without MPMA, FIGS. 10 and 11
Experimental: At 0.5, 1, 2, 4, 6, and 8 hours the PBS was removed and fresh PBS was added.

[3] = In vitro drug release into and across sclera tissue (Franz cell); format: in vitro ADME, Porcine; settings: 4 minutes, 4 hours, 8 hours; HPLC-UV; FIG. 13
Source text: An experimental setup (shown in FIG. 12) for determining drug release from a soft contact lens hydrogel disc into and across sclera tissue was created using a glass Franz cell. The Franz cell was filled with PBS. A cell strainer (BD Falcon, […] nylon, 23 mm ID) was fitted onto the Franz cell as a framework to hold the sclera and hydrogel disc together. Porcine sclera tissue (21 mm diameter, 1 mm thick) was placed in the cell strainer, the drug-loaded hydrogel disc was placed onto the sclera tissue, and a glass bottle was placed on top of the disc to firmly hold the assembly together in the cell strainer. At 4 minutes, 4 hours, or 8 hours, the sclera tissue was removed and a sample of the PBS from the Franz cell was taken. The sclera tissue was digested using collagenase, and the amount of dexP in the digested sclera tissue and PBS was determined using HPLC-UV.

[4] = rabbit, in vivo
Experimental: Following sterilization, lenses were handled aseptically. […] Control (drug-free) lenses were soaked and then stored (at 4° C.) in sterile isotonic saline until use. Controls were used only for retention and ocular health assessments.
A total of 11 New Zealand White rabbits were used in this study: 2 animals were in the control group and 9 animals in the treatment group. The nictitating membranes of the rabbits were removed and the rabbits allowed to recover for 2 weeks prior to study initiation. For the study, a contact lens was placed on each eye of an animal and a tarsorrhaphy performed by placing a single staple in the corner of the eyelids to aid in retention of the contact lenses. Cage side observations of the animals occurred every 2 hours to monitor lens retention and ocular health. At 2, 4, and 8 hours following lens placement, 3 animals in the treatment group were euthanized, the staple and contact lens from each eye were removed, and ocular health was noted. The following tissues were then isolated: aqueous humor (AH), vitreous humor (VH), retina, choroid, cornea, conjunctiva, and sclera. The aqueous humor was retrieved from each eye using a sterile 30-gauge needle on a 1 mL syringe while the eyes were still intact in the animal. Tissues were transferred to pre-weighed, pre-labeled tubes in a box of dry ice. […]

[5] = dexP release from silicone-based hydrogel discs into PBS; format: physicochemical
Source text: Silicone-based hydrogels similar to formulation 2 in Table 1, but with only 1% EGDMA, were made with and without 15% MPMA. Unreacted components were extracted as described in Example 4.

[6] = Loss of crosslinked-in dexP during extraction washes (HPLC-UV); format: physicochemical; settings: formulation 4 hydrogels with MPMA compared to without MPMA; FIG. 4
Experimental: Hydrogels were placed in deionized (DI) water for 35 minutes at 37° C./200 rpm, followed by 3 times in isopropyl alcohol for 25 minutes each at 37° C./200 rpm, then 2 additional times in DI water for 25 minutes each.

[7] = Formulation 3
Experimental: HEMA-based hydrogels were prepared as described in Example 4 using Formulation 3.

Row | Compound | effect of MPMA on release over time [2] | effect of MPMA on amount of drug loaded [1] | effect of MPMA on total amount of drug released and extracted [2] | also measured
1 | C[C@@H]1C[C@H]2[C@@H]3CCC4=CC(=O)C=C[C@]4(C)[C@@]3(F)[C@@H](O)C[C@]2(C)[C@@]1(O)C(=O)COP(=O)(O)O [dexP, dexamethasone phosphate] |  | significantly increased the amount of drug loaded | significantly greater | amount of dexP in sclera tissue and PBS reservoir [3]: increasing amount of dexP in the sclera tissue and PBS over time; detection in ocular tissues [4]: detected in the tissues of treated animals at each timepoint; drug reaching the back of the eye [4]: drug concentrations observed in the VH, retina, and choroid; total amount of dexP released ([5]; silicone-based discs with 15% MPMA vs without, initial soak, release in PBS, FIG. 6A): significantly greater; amount of dexP released after re-loading ([5]; silicone-based discs with MPMA vs without, re-soaked overnight, FIG. 6B): greater amount of dexP release; amount of incorporated dexP removed during water and alcohol washes [6]: very little of the incorporated dexP was removed
2 | C[C@@H]1C[C@H]2[C@@H]3CCC4=CC(=O)C=C[C@]4(C)[C@@]3(F)[C@@H](O)C[C@]2(C)[C@@]1(O)C(=O)COP(=O)([O-])[O-].[Na+].[Na+] [disodium dexP] |  |  |  | loading of dexP, disodium form compared to free acid form ([7]; 7 days soak in 40 mg/ml solution, FIG. 16): decreased loading and release; release of dexP, disodium form compared to free acid form ([7]; PBS up to 8 hours, FIG. 17): decreased loading and release
3 | C[C@]12C=CC(=O)C=C1CC[C@@H]1[C@@H]2[C@@H](O)C[C@@]2(C)[C@H]1CC[C@]2(O)C(=O)COP(=O)(O)O [predP, Prednisolone phosphate] |  | significantly increased the amount of drug loaded | significantly greater | 

Continued, in another order:

Row | effect of MPMA on release over time [2] | Compound | effect of MPMA on amount of drug loaded [1] | effect of MPMA on total amount of drug released and extracted [2] | also measured
4 | very little effect | Cc1ncc([N+](=O)[O-])n1CCO [Metronidazole] | did not affect loading | did not affect the amount released and extracted | total amount of drug released and extracted compared between drugs ([2]; 10 mg/ml soaking solution for metronidazole vs 40 mg/ml for the other drugs): lower than for dexP and predP
5 | significantly reduced | NC[C@H]1O[C@H](O[C@H]2[C@H](O)[C@@H](O[C@H]3O[C@H](CO)[C@@H](O)[C@H](N)[C@H]3O)[C@H](N)C[C@@H]2N)[C@H](N)C[C@@H]1O [Tobramycin] | did not affect loading | significantly decreased the amount of drug released and extracted | 
